For assay [1], the target named is T1, CblD (Homo sapiens, UniProt Q9H3L0).
T1 sequence (Q9H3L0 1-296): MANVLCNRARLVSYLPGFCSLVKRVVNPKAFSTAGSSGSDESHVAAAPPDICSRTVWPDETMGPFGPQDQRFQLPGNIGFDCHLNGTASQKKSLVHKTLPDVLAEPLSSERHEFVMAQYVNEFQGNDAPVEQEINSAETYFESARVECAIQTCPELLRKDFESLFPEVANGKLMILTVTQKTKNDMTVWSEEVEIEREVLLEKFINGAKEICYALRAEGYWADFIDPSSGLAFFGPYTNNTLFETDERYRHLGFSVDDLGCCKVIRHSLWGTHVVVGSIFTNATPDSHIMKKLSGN
The assay is described as follows: UV-visible titration. The class given is binding.

In assay [2] the target is T2, CblC (Homo sapiens, UniProt Q9Y4U1).
T2 chain: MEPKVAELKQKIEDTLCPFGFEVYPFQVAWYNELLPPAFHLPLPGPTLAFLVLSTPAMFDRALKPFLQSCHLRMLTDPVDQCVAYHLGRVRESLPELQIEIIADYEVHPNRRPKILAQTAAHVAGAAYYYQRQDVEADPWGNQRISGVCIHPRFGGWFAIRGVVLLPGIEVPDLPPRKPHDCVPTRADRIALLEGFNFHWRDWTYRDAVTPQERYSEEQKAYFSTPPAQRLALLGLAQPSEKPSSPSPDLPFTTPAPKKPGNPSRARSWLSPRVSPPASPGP
In words: ITC.

Usually Kd stands for a measure of binding affinity in units of concentration. As to H2OCbl, the Kd in assay [1] was determined as 1 ± 0.4 µM.

B1: CblD (protein)
chain: SDESHVAAAPPDICSRTVWPDETMGPFGPQDQRFQLPGNIGFDCHLNGTASQKKSLVHKTLPDVLAEPLSSERHEFVMAQYVNEFQGNDAPVEQEINSAETYFESARVECAIQTCPELLRKDFESLFPEVANGKLMILTVTQKTKNDMTVWSEEVEIEREVLLEKFINGAKEICYALRAEGYWADFIDPSSGLAFFGPYTNNTLFETDERYRHLGFSVDDLGCCKVIRHSLWGTHVVVGSIFTNATPDSHIMKKLSGN
modifications: cobalamin
In assay [2], B1 gave a Kd of 0.04 µM.
